Usually IC50 stands for the midpoint of a concentration-inhibition curve.

The test system of the assay is HIV-1 fusion. The assay is described as follows: gp160 induced cell-cell fusion assay (HeLa P4 / CHO-Tat10 cell lines). As to conditions: Human immunodeficiency virus 1, HeLaP4, read-out: IC50 against HIV-1 fusion. The class given is cell-based. The method, then:
The gp160 induced cell-cell fusion assay uses a HeLa P4 cell line and a CHO-Tat10 cell line.
The HeLa P4 cell line expresses CCR5 and CD4 and has been transfected with HIV-1 LTR-β-Galactosidase. The media for this cell line is Dulbecco modified eagle's medium (D-MEM) (without L-glutamine) containing 10% foetal calf serum (FCS), 2 mM L-glutamine penicillin/streptomycin (Pen/Strep; 100 U/mL penicillin+[…] streptomycin), and 1 μg/ml puromycin.
The CHO cell line is a Tat (transcriptional trans activator)-expressing clone from a CHO JRR17.1 cell line that has been transfected with pTat puro plasmid. The media for this cell line is rich medium for mammalian cell culture originally developed at Roswell Park Memorial Institute RPMI1640 (without L-glutamine) containing 10% FCS, 2 mM L-glutamine, 0.5 mg/ml Hygromycin B and 12 μg/ml puromycin. The CHO JRR17.1 line expresses gp160 (JRFL) and is a clone that has been selected for its ability to fuse with a CCR5/CD4 expressing cell line.
Upon cell fusion, Tat present in the CHO cell is able to transactivate the HIV-1 long terminal repeat (LTR) present in the HeLa cell leading to the expression of the β-Galactosidase enzyme. This expression is then measured using a Fluor Ace™ β-Galactosidase reporter assay kit (Bio-Rad cat no. 170-3150). This kit is a quantitative fluorescent assay that determines the level of expression of β-galactosidase using 4-methylumbelliferul-galactopyranoside (MUG) as substrate. β-Galactosidase hydrolyses the fluorogenic substrate resulting in release of the fluorescent molecule 4-methylumbelliferone (4MU). Fluorescence of 4-methylumbelliferone is then measured on a fluorometer using an excitation wavelength of 360 nm and emission wavelength of 460 nm.
Compounds that inhibit fusion will give rise to a reduced signal and, following solubilisation in an appropriate solvent and dilution in culture medium, a dose-response curve for each compound can be used to calculate IC50 values.
Regarding `Cc1ncnc(C)c1C(=O)N1CCC(C)(N2CCC(N(Cc3ccccc3F)C(=O)C3CC(F)(F)C3)CC2)CC1` [Example 25, N-{1′-[(4,6-dimethylpyrimidin-5-yl)carbonyl]-4′-methyl-1,4′-bipiperidin-4-yl}-3,3-difluoro-N-(2-fluorobenzyl)cyclobutanecarboxamide], the IC50 turned out to be 5.5 nM.

With `Cc1ncnc(C)c1C(=O)N1C[C@H]2CC[C@@H](C1)[C@H]2N1CCC(N(Cc2ccccc2)C(=O)C2CC2)CC1` [Example 10, N-benzyl-N-(1-{(8-syn)-3-[(4,6-dimethylpyrimidin-5-yl)carbonyl]-3-azabicyclo}piperidin-4-yl)cyclopropanecarboxamide], the IC50 was determined as 516 nM.

Turning to `Cc1ccnc(C)c1C(=O)N1CCC(C)(N2CCC(N(Cc3ccccc3)C(=O)C3CC(F)(F)C3)CC2)CC1` [Example 1, N-benzyl-N-{1′-[(2,4-dimethylpyridin-3-yl)carbonyl]-4′-methyl-1,4′-bipiperidinyl-4-yl}-3,3-difluorocyclobutanecarboxamide], the IC50 is 0.013 nM.

In the case of `Cc1ncnc(C)c1C(=O)N1CCC(C)(N2CCC(N(Cc3ccccc3)S(C)(=O)=O)CC2)CC1` [Example 29, N-benzyl-N-{1′-[(4,6-dimethylpyrimidin-5-yl)carbonyl]-4′-methyl-1,4′-bipiperidin-4-yl}methanesulfonamide], the IC50 turned out to be 346 nM.

Turning to `Cc1ccnc(C)c1C(=O)N1CCC(C)(N2CCC(N(Cc3cccc(F)c3)C(=O)C3CC3)CC2)CC1` [Example 47, N-{1′-[(2,4-dimethylpyridin-3-yl)carbonyl]-4′-methyl-1,4′-bipiperidin-4-yl}-N-(3-fluorobenzyl)cyclopropanecarboxamide.2HCl], the IC50 was found to be 0.343 nM.

The values above are taken from US20090124635A1, “CHEMICAL COMPOUNDS” (priority 2005, published 2009).
